# Experimental data reported in patent publication US10578610B2, “Peptide regulators of mitochondrial fusion and methods of use” (priority 2016, dated 2020).
# Read-outs that look alike come from different tables or passages of the source. Ends that are not written are not given here.
# Assays:
# Assay type in all cases: cell-based, murine
# WT MEFs = conditions: for mitochondrial aspect ratio (effect of TAT fusion construct): WT MEFs, varying concentrations / time course; for EC50: mitochondrial aspect ratio dose response; for EC50 / half-time for mitochondrial shape change: MEFs; for half-time for mitochondrial shape change: time course
# Protocol: MEFs or neurons were grown on chamber slides and infected with recombinant adenoviri for 48-72 hours unless otherwise indicated. MEFs were stained with MitoTracker Green (200 nM, Invitrogen M7514) and Blue Hoechst (10 mg/ml, Invitrogen H3570), with or without tetramethylrhodamine ethyl ester (TMRE; 200 nM, Invitrogen T-669). Neuronal mitochondria were labeled with adenoviral-expressed mitoGFP plus TMRE, or with adeno-mitoDsRed for time-lapse studies. Cover slips were loaded onto a chamber (Warner instrument, RC-40LP) in modified Krebs-Henseleit buffer (138 mM NaCl, 3.7 mM KCl, 1.2 mM KH2PO4, 15 mM Glucose, 20 mM HEPES and 1 mM CaCl2) at room temperature and visualized on a Nikon Ti Confocal microscope equipped with a 60×1.3 NA oil immersion objective. For mitophagy studies MEFs were stained with MitoTracker Green and infected with adeno-mcherry Parkin or stained with LysoTracker Deep Red (50 nM, Invitrogen L-7528); carbonylcyanide p-trifluoromethoxyphenylhydrazone (FCCP, 10 μM for 1 hour) was applied as a positive control. Mitochondrial fusion was measured at 2 and 6 hours after PEG-mediated cell fusion of MEFs treated 48 hours previously with adeno-mitoGFP or adeno-mitoDsRed (Chen et al., 2005, J Biol Chem, 280:26185-26192). Laser confocal fluorescence was excited with 561 nm (MitoTracker Green, GFP, FITC), 637 nm (TMRE, LysoTracker Red, mcherry-Parkin, MitoTracker Orange) or 408 nm (Blue Hoechst) laser diodes. Image analysis—Mitochondrial aspect ratio was calculated using automated edge detection and Image J software (Song et al., 2015, Cell Metab, 21:273-285). Mitochondrial depolarization was calculated as % of green mitochondria visualized on MitoTracker Green and TMRE merged images, expressed as green/(green+yellow mitochondria)×100. Parkin aggregation was calculated as % of cells with mitochondrial clumping of mcherry-Parkin (Song et al., 2015, Cell Metab, 21:273-285). Lysosomal engulfment of mitochondria was identified by colocalization of LysoTracker Red and MitoTracker Green (Song et al., 2015, Cell Metab, 21:273-285).
# TAT47-57 is a well-characterized “carrier” peptide able to promote active cellular peptide uptake. Specifically, a linear peptide was constructed in which the hMfn2 modulatory peptide was linked by a peptide bond at its C-terminus to a Gly-Gly dipeptide linker whose C-terminus was linked by a peptide bond to the TAT47-57 peptide having the sequence YGRKKRRQRRR (SEQ ID NO:25). The resultant linear fusion-promoting peptide conjugate comprises the sequence […] (SEQ ID NO:23). The fusion-inhibiting linear peptide has the sequence […] (SEQ ID NO:24). Except for dose-response studies, stock concentrations of TAT-minipeptides in sterile water were applied to cultured MEFs at a dilution factor of 1:2000 to achieve final concentrations of 1 or 5 μM.
# The functional consequences of the Mfn2 HR1-derived peptides were defined after synthesizing them as C-terminal TAT47-57 conjugates to promote active cellular uptake. Mitochondrial fusion can be detected by mixing of organellar contents (Chen et al., 2005, J Biol Chem, 280:26185-26192). […] (FIG. 8A, scale bar is 20 microns). Mitochondrial aspect ratio changed in parallel with mitochondrial mixing (FIG. 8B).
# Experiments were performed with these shortened variants fused to a carrier peptide via a linker according to the methods described in Example 5 above. Wildtype MEFs were treated with varying concentrations of peptide fusion constructs described in Table 4 and mitochondrial aspect ratios determined. A dose response curve for TetherX-N and -C variants are shown in FIG. 17A (squares are data for TetherX-N and circles are for TetherX-C). The dose response curve for GoFuse-N and -C variants are shown in FIG. 17B (squares are for GoFuse-N and circles are for GoFuse-C).
# Mfn1/Mfn2 DKO MEFs = assay: Confocal localization of FITC-labeled TAT-minipeptides in mitofusin null cells; conditions: MEFs completely lacking mitofusins
# Protocol: The above results support the premise that TAT-conjugated Mfn2 minipeptides affect mitochondrial fusion by modulating Mfn1 and Mfn2 conformation according to the dynamic structure model depicted in FIGS. 3A-3C. Additional studies were performed to validate this mechanism of action using the minipeptide-Mfn2 binding assay procedure. Confocal localization of FITC-labeled TAT-minipeptides in WT MEFs and Mfn null MEFs (Mfn1/Mfn2 DKO) was used for analysis of interaction between the minipeptides and mitochondrial mitofusins. Mitochondria were stained with MitoTracker Orange; nucleus was stained with Blue Hoechst. Line-scans were generated for the confocal photographs.
# Thus, cell-internalized TAT-conjugated Mfn2 HR1 minipeptides bind specifically to mitochondrial mitofusins.
# Mfn2 KO MEFs = assay: TAT-minipeptides in a cell model of Mfn2 deficiency; conditions: 1 μM or 5 μM, 24 hours, data not shown
# Text: Enhancing Mfn1- or Mfn2-mediated mitochondrial fusion with TAT-367-384 Gly has potential to alleviate mitochondrial morphological abnormalities like those evoked in CMT2A caused by nonsense or damaging non-synonymous Mfn2 mutations (Bombelli et al., 2014, JAMA Neurol, 71:1036-1042). It was reasoned that mitochondrial morphology would improve if endogenous normal Mfn1 or Mfn2 were assisted into their active conformations in which the D2 region is extended and/or available for interaction with the D2 region of a second Mfn protein (e.g., FIGS. 1B and 3B). This notion was tested in Mfn2 KO MEFs, a cell model of Mfn2 deficiency. WT MEFs and Mfn2 KO MEFs were treated with 1 μM or 5 μM TAT-367-384Gly peptide or TAT-398-418Gly peptide.
Sequence,mitochondrial aspect ratio (effect of TAT fusion construct) (WT MEFs),EC50 (WT MEFs; read-out: EC50 for mitochondrial shortening (suppressed fusion)) [µM],half-time for mitochondrial shape change (WT MEFs),localization of FITC-labeled TAT-peptide to mitochondria (Mfn1/Mfn2 DKO MEFs),mitochondrial aspect ratio (Mfn2 KO MEFs),EC50 (WT MEFs; read-out: EC50 for mitochondrial elongation (enhanced fusion)) [µM]
QDRLKFIDKQGELLAQDYKLRGGYGRKKRRQRRR [TAT-398-418Gly],decreased mitochondrial aspect ratio,0.25 ± 0.09,approximately 2 hours,not to MEFs completely lacking mitofusins,exaggerated mitochondrial shortening,
QIAEAVRGIMDSLHMAARGGYGRKKRRQRRR [TAT-367-384Gly],increased the mitochondrial aspect ratio,,approximately 2 hours,not to MEFs completely lacking mitofusins,normalized mitochondrial aspect ratio,0.28 ± 0.09
